Tested on: cancer cell lines
Experiment: Cancer cell proliferation activity of representative nucleosides, CellTiterGlo 72 h (Example 7, Tables 8 and 9)
Assay type: cell-based
Procedure, shortened: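 Cancer cell lines seeded and incubated at 37° C overnight, then exposed to nucleosides (final DMSO 0.1%) for 72 h at 37° C with 5% or 10% CO2. Viability read by CellTiterGlo luminescence and normalized to 0.1% DMSO (100%) and 10 μM staurosporine (0%) controls.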

## Nc1ccn([C@H]2C[C@H](O)[C@](CO)(CF)O2)c(=O)n1 [compound 32]
72 h, 5637, 72 h (Table 9)
  IC50: 450 nM
72 h, CLS439, 72 h (Table 9)
  IC50: 2270 nM
72 h, HS729, 72 h (Table 9)
  IC50: 580 nM
72 h, J82, 72 h (Table 9)
  IC50: 760 nM
72 h, JAR, 72 h (Table 9)
  IC50: > 50000 nM
72 h, MT3, 72 h (Table 9)
  IC50: 80 nM
72 h, PC3, 72 h (Table 9)
  IC50: 180 nM
72 h, RD, 72 h (Table 9)
  IC50: 1030 nM
72 h, T24, 72 h (Table 9)
  IC50: 290 nM
Homo sapiens, 22Rv1, 72 h, 22RV1, 72 h (Table 9)
  IC50: 1330 nM
Homo sapiens, 786-0, 72 h, 786O, 72 h (Table 9)
  IC50: 1070 nM
Homo sapiens, A204, 72 h, A204, 72 h (Table 9)
  IC50: 20 nM
Homo sapiens, A549, 72 h, A549, 72 h (Table 9)
  IC50: 440 nM
Homo sapiens, A673, 72 h, A673, 72 h (Table 9)
  IC50: 1740 nM
Homo sapiens, A2780, 72 h, A2780, 72 h (Table 9)
  IC50: 720 nM
Homo sapiens, A-375, 72 h, A375, 72 h (Table 9)
  IC50: 710 nM
Homo sapiens, A-431, 72 h, A431, 72 h (Table 9)
  IC50: 470 nM
Homo sapiens, ACHN, 72 h, 72 h (Table 9)
  IC50: 390 nM
Homo sapiens, ASPC1, 72 h, ASPC1, 72 h (Table 9)
  IC50: 580 nM
Homo sapiens, BT-20, 72 h, BT20, 72 h (Table 9)
  IC50: 580 nM
Homo sapiens, BXPC-3, 72 h, BXPC3, 72 h (Table 9)
  IC50: 540 nM
Homo sapiens, C-33-A, 72 h, C33A, 72 h (Table 9)
  IC50: 240 nM
Homo sapiens, CAKI-1, 72 h, CAKI1, 72 h (Table 9)
  IC50: 110 nM
Homo sapiens, COLO 205, 72 h, COLO205, 72 h (Table 9)
  IC50: 210 nM
Homo sapiens, COLO-678, 72 h, COLO678, 72 h (Table 9)
  IC50: 3760 nM
Homo sapiens, Ca-Ski, 72 h, CASKI, 72 h (Table 9)
  IC50: 3960 nM
Homo sapiens, Caco-2, 72 h, CACO2, 72 h (Table 9)
  IC50: > 50000 nM
Homo sapiens, Calu-6, 72 h, CALU6, 72 h (Table 9)
  IC50: 720 nM
Homo sapiens, DLD-1, 72 h, DLD1, 72 h (Table 9)
  IC50: 2650 nM
Homo sapiens, DU-145, 72 h, DU145, 72 h (Table 9)
  IC50: 310 nM
Homo sapiens, EFO-21, 72 h, EFO21, 72 h (Table 9)
  IC50: 790 nM
Homo sapiens, EJ-28, 72 h, EJ28, 72 h (Table 9)
  IC50: 1530 nM
Homo sapiens, Granta-519, 72 h, GRANTA-519, 72 h (Table 9)
  IC50: 70 nM
Homo sapiens, HCT-15, 72 h, HCT15, 72 h (Table 9)
  IC50: 460 nM
Homo sapiens, HCT-116, 72 h, HCT116, 72 h (Table 9)
  IC50: 470 nM
Homo sapiens, HEK293, 72 h, HEK293, 72 h (Table 9)
  IC50: > 50000 nM
Homo sapiens, HL-60, 72 h, HL-60, 72 h (Table 9)
  IC50: 1010 nM
Homo sapiens, HT-29, 72 h, HT29, 72 h (Table 9)
  IC50: 1270 nM
Homo sapiens, HT-1080, 72 h, HT1080, 72 h (Table 9)
  IC50: 380 nM
Homo sapiens, HeLa, 72 h, 72 h (Table 9)
  IC50: 1000 nM
Homo sapiens, HepG2, 72 h, HEPG2, 72 h (Table 9)
  IC50: 1000 nM
Homo sapiens, Hs-578T, 72 h, HS578T, 72 h (Table 9)
  IC50: 970 nM
Homo sapiens, IGROV-1, 72 h, IGROV1, 72 h (Table 9)
  IC50: 510 nM
Homo sapiens, IMR-90, 72 h, IMR90, 72 h (Table 9)
  IC50: 1580 nM
Homo sapiens, JEG-3, 72 h, JEG3, 72 h (Table 9)
  IC50: 3340 nM
Homo sapiens, JIMT-1, 72 h, JIMT1, 72 h (Table 9)
  IC50: 190 nM
Homo sapiens, K562, 72 h, K-562, 72 h (Table 9)
  IC50: 4450 nM
Homo sapiens, Kasumi 1, 72 h, KASUMI-1, 72 h (Table 9)
  IC50: 270 nM
Homo sapiens, L-363, 72 h, L-363, 72 h (Table 9)
  IC50: > 50000 nM
Homo sapiens, LoVo, 72 h, 72 h (Table 9)
  IC50: 290 nM
Homo sapiens, MCF7, 72 h, MCF7, 72 h (Table 9)
  IC50: 3170 nM
Homo sapiens, MDA-MB-231, 72 h, MDAMB231, 72 h (Table 9)
  IC50: 100 nM
Homo sapiens, MDA-MB-435, 72 h, MDAMB435, 72 h (Table 9)
  IC50: 1300 nM
Homo sapiens, MDA-MB-436, 72 h, MDAMB436, 72 h (Table 9)
  IC50: 950 nM
Homo sapiens, MDA-MB-468, 72 h, MDAMB468, 72 h (Table 9)
  IC50: 3110 nM
Homo sapiens, MG-63, 72 h, MG63, 72 h (Table 9)
  IC50: 480 nM
Homo sapiens, MHH-ES-1, 72 h, MHHES1, 72 h (Table 9)
  IC50: 1660 nM
Homo sapiens, MIA PaCa-2, 72 h, MIAPACA2, 72 h (Table 9)
  IC50: 1150 nM
Homo sapiens, MINO, 72 h, 72 h (Table 9)
  IC50: 60 nM
Homo sapiens, MV4-11, 72 h, MV4-11, 72 h (Table 9)
  IC50: 840 nM
Homo sapiens, NCI-H23, 72 h, NCI-H23, 72 h (Table 9)
  IC50: 720 nM
Homo sapiens, NCI-H82, 72 h, NCIH82, 72 h (Table 9)
  IC50: 1150 nM
Homo sapiens, NCI-H292, 72 h, NCIH292, 72 h (Table 9)
  IC50: 920 nM
Homo sapiens, NCI-H460, 72 h, NCIH460, 72 h (Table 9)
  IC50: 770 nM
Homo sapiens, OVCAR-3, 72 h, OVCAR3, 72 h (Table 9)
  IC50: 640 nM
Homo sapiens, OVCAR-4, 72 h, OVCAR4, 72 h (Table 9)
  IC50: 8050 nM
Homo sapiens, PANC-1, 72 h, PANC1, 72 h (Table 9)
  IC50: 620 nM
Homo sapiens, PLC-PRF-5, 72 h, PLCPRF5, 72 h (Table 9)
  IC50: > 50000 nM
Homo sapiens, Panc1005, 72 h, PANC1005, 72 h (Table 9)
  IC50: > 50000 nM
Homo sapiens, Ramos, 72 h, 72 h (Table 9)
  IC50: 240 nM
Homo sapiens, SAOS-2, 72 h, SAOS2, 72 h (Table 9)
  IC50: 110 nM
Homo sapiens, SF-268, 72 h, SF268, 72 h (Table 9)
  IC50: 260 nM
Homo sapiens, SF-295, 72 h, SF295, 72 h (Table 9)
  IC50: 3250 nM
Homo sapiens, SK-BR-3, 72 h, SKBR3, 72 h (Table 9)
  IC50: 260 nM
Homo sapiens, SK-HEP1, 72 h, SKHEP1, 72 h (Table 9)
  IC50: 320 nM
Homo sapiens, SK-LMS-1, 72 h, SKLMS1, 72 h (Table 9)
  IC50: 860 nM
Homo sapiens, SK-MEL-5, 72 h, SKMEL5, 72 h (Table 9)
  IC50: 6180 nM
Homo sapiens, SK-MEL-28, 72 h, SKMEL28, 72 h (Table 9)
  IC50: 1320 nM
Homo sapiens, SK-N-AS, 72 h, SKNAS, 72 h (Table 9)
  IC50: 1220 nM
Homo sapiens, SK-N-SH, 72 h, SKNSH, 72 h (Table 9)
  IC50: > 50000 nM
Homo sapiens, SK-OV-3, 72 h, SKOV3, 72 h (Table 9)
  IC50: 1460 nM
Homo sapiens, SNB-75, 72 h, SNB75, 72 h (Table 9)
  IC50: 550 nM
Homo sapiens, SU-DHL10, 72 h, SU-DHL-10, 72 h (Table 9)
  IC50: 560 nM
Homo sapiens, SU-DHL-6, 72 h, SU-DHL-6, 72 h (Table 9)
  IC50: 310 nM
Homo sapiens, SW-620, 72 h, SW620, 72 h (Table 9)
  IC50: 1140 nM
Homo sapiens, TE-671, 72 h, TE671, 72 h (Table 9)
  IC50: 1020 nM
Homo sapiens, THP-1, 72 h, THP-1, 72 h (Table 9)
  IC50: 650 nM
Homo sapiens, U2OS, 72 h, 72 h (Table 9)
  IC50: 2450 nM
Homo sapiens, U-87 MG, 72 h, U87MG, 72 h (Table 9)
  IC50: 400 nM
Homo sapiens, UMUC3, 72 h, UMUC3, 72 h (Table 9)
  IC50: 1210 nM
Homo sapiens, UO-31, 72 h, UO31, 72 h (Table 9)
  IC50: 550 nM
Homo sapiens, WSU-NHL, 72 h, 72 h (Table 9)
  IC50: 150 nM
NCI-H358M, 72 h, NCIH358M, 72 h (Table 9)
  IC50: 120 nM
PBMC, 72 h, 72 h (Table 9)
  IC50: 710 nM
RD-ES, 72 h, RDES, 72 h (Table 9)
  IC50: 1900 nM

— US20230293526A1, “METHOD FOR TREATING CANCER WITH A REVERSE TRANSCRIPTASE INHIBITOR” (PrimeFour Therapeutics, Inc., priority 2020, published 2023)
